Data published in a compilation of properties of binary mixtures (doi:10.1007/s10953-017-0578-y).

Experiment: xn = mol fraction of the nth substance listed
Details: 100 kPa

CNc1ccccc1 + CC[n+]1ccn(C)c1.F[B-](F)(F)F
speed of sound [m/s]
Details | x2 = 0 | x2 = 0.1046 | x2 = 0.2048 | x2 = 0.3057 | x2 = 0.3985 | x2 = 0.5064 | x2 = 0.6045 | x2 = 0.6994 | x2 = 0.8005 | x2 = 0.9084
293.15 K | – | 1603.9 | 1617.6 | 1627.9 | 1632.7 | 1632.5 | – | 1627.7 | 1625.9 | 1627
303.15 K | – | 1568.9 | 1586.9 | – | 1603.8 | 1604.7 | 1604.1 | 1602.6 | 1601.3 | 1604
313.15 K | 1511.7 | – | – | 1567 | 1574.4 | 1576.1 | 1578.3 | 1577.9 | 1576.2 | 1579.4
323.15 K | 1476.4 | 1500.3 | 1523.6 | 1537.2 | 1545.6 | 1549 | – | 1551.6 | 1550.4 | 1553.3

CC[n+]1ccn(C)c1.F[B-](F)(F)F + CNc1ccccc1
x1 = 1
Details | speed of sound [m/s]
293.15 K | 1632.6
303.15 K | 1609.5
313.15 K | 1586.2
323.15 K | 1563.4
